Here are results for 25 compounds from patent publication US20240182445A1 (ONO PHARMACEUTICAL CO., LTD., priority 2019, published 2024).

Molecules are shown by their SMILES.

In the first assay the target is T1, human TREK-1 (Homo sapiens, UniProt O95069).
T1 construct: expressed in transfected cells
T1 sequence (O95069 1-426): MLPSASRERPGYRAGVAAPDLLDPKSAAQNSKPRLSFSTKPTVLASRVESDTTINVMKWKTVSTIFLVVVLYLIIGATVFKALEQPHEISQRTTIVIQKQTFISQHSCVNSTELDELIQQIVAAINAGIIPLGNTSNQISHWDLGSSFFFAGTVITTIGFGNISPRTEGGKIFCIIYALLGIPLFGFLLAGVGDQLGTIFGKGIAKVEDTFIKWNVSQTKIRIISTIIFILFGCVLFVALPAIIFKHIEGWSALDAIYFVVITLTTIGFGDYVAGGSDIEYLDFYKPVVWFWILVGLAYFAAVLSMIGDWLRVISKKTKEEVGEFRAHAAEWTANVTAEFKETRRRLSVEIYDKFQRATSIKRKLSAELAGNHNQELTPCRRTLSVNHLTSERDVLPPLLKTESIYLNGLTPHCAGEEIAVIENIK
Briefly: TREK-1 Thallium (Tl+) flux assay, Method 1. It counts as cell-based. The note with it: TREK-1 Thallium (Tl+) flux assay, Method 1. The procedure: The term “thallium flux assay” herein refers to a fluorescence-based assay used to monitor the activity of TREK channels. Thallium is a congener of potassium that readily fluxes through the pore of TREK channels. Thallium flux is measured using a commercially available, thallium-sensitive fluorescent dye called Thallos. The detail method is described below.
CHO-K1 cells stably expressing human TREK-1 were plated in 384-well plates, cultured overnight, loaded with Thallos dye the following day. Test compounds or control compound (tert-butyl (3-((4-(benzyloxy)-2-methylphenyl)carbamoyl)-4-chlorophenyl)carbamate) or 0.3% DMSO (vehicle control) which were prepared on separate plates were added to the cell plates and incubated for 10 min, and then the cells were treated with thallium stimulus buffer to initiate thallium flux. To measure the efficacy and potency of test compounds, the change in fluorescence intensity (ΔRatio) and % inhibition were calculated using the following equations:
ΔRatio=(fluorescence intensity at 25 seconds after thallium addition)/(average of fluorescent intensity before thallium addition)
For `CC(=O)N1CCOC(Cn2ncc(Cl)c2C(=O)Nc2ccc(OCc3ccccc3)cc2C)C1` (stereo not shown) [Compound 423, 1-((4-acetylmorpholin-2-yl)methyl)-N-(4-(benzyloxy)-2-methylphenyl)-4-chloro-1H-pyrazole-5-carboxamide], the midpoint of inhibition, the IC50, lay at 4820 nM.
The same measure, in the same setting: to `Cc1cc(OCc2ccccc2)ccc1NC(=O)c1c(Cl)cnn1CC1CN(C(=O)C(C)C)CCO1` (stereo not shown) [Compound 420, N-(4-(benzyloxy)-2-methylphenyl)-4-chloro-1-((4-isobutyrylmorpholin-2-yl)methyl)-1H-pyrazole-5-carboxamide] belongs 4380 nM.
`CC(=O)N[C@H]1CC[C@@H](n2ncc(Cl)c2C(=O)Nc2ccc(OCc3ccccc3)cc2C)CC1` [Compound 399, 1-(cis-4-acetamidocyclohexyl)-N-(4-(benzyloxy)-2-methylphenyl)-4-chloro-1H-pyrazole-5-carboxamide]: the half-maximal inhibitory concentration (IC50) (as a rule, the point on the concentration scale where inhibition reaches its midpoint) came out at 1760 nM.
Compound `CC(=O)N1CC2(CC(n3ncc(Cl)c3C(=O)Nc3ccc(OCc4ccccc4)cc3C)C2)C1` [Compound 433, 1-(2-acetyl-2-azaspiro[3.3]heptan-6-yl)-N-(4-(benzyloxy)-2-methylphenyl)-4-chloro-1H-pyrazole-5-carboxamide] returned an IC50 of 6890 nM.
The same measure, in the same setting: to `Cc1cc(OCc2ccccc2)ccc1NC(=O)c1c(Cl)cnn1CC1CN(C(=O)C2CCC2)CCO1` (stereo not shown) [Compound 424, N-(4-(benzyloxy)-2-methylphenyl)-4-chloro-1-((4-(cyclobutanecarbonyl)morpholin-2-yl)methyl)-1H-pyrazole-5-carboxamide] belongs 4850 nM; to `CC(=O)N1CCC(n2ncc(Cl)c2C(=O)Nc2ncc(-c3ccc(OC(F)F)cc3)cc2C)CC1` [Compound 421, 1-(1-acetylpiperidin-4-yl)-4-chloro-N-(5-(4-(difluoromethoxy)phenyl)-3-methylpyridin-2-yl)-1H-pyrazole-5-carboxamide], 4400 nM; to `CC(=O)N1CCC(n2ncc(Cl)c2C(=O)Nc2ncc(-c3ccc(CC(C)C)cc3)cc2C)CC1` [Compound 418, 1-(1-acetylpiperidin-4-yl)-4-chloro-N-(5-(4-isobutylphenyl)-3-methylpyridin-2-yl)-1H-pyrazole-5-carboxamide], 4170 nM.

Still in this assay, the particulars now being: TREK-1 Thallium (Tl+) flux assay; no *^12 (Method 2) mark on these rows.
`CC(=O)N1CC[C@@H](n2ncc(Cl)c2C(=O)Nc2ncc(C#Cc3ccccc3)cc2C)C1` [Compound 202, (R)-1-(1-acetylpyrrolidin-3-yl)-4-chloro-N-(3-methyl-5-(phenylethynyl)pyridin-2-yl)-1H-pyrazole-5-carboxamide] had an IC50 of 310 nM.
On the same count and under the same terms, to `Cc1cc(-c2cnn(-c3ccc(F)cc3)c2)cnc1NC(=O)c1c(Cl)cnn1C1CCOCC1` [Compound 381, 4-chloro-N-(5-(1-(4-fluorophenyl)-1H-pyrazol-4-yl)-3-methylpyridin-2-yl)-1-(tetrahydro-2H-pyran-4-yl)-1H-pyrazole-5-carboxamide] belongs 600 nM.
On to `CC(C)(C)OC(=O)N[C@H]1CC[C@H](n2ncc(Cl)c2C(=O)Nc2ncc(C#Cc3ccccc3)cc2F)CC1` [Compound 360, tert-butyl (trans-4-(4-chloro-5-((3-fluoro-5-(phenylethynyl)pyridin-2-yl)carbamoyl)-1H-pyrazol-1-yl)cyclohexyl)carbamate], for which the IC50 was found to be 900 nM.
Compound `Cc1cc(C#Cc2ccccc2)cnc1NC(=O)c1c(Cl)cnn1C1CC2(C1)CN(C(=O)OC(C)(C)C)C2` [Compound 330, tert-butyl 6-(4-chloro-5-((3-methyl-5-(phenylethynyl)pyridin-2-yl)carbamoyl)-1H-pyrazol-1-yl)-2-azaspiro[3.3]heptane-2-carboxylate] came in with a half-inhibitory concentration (IC50) of 650 nM.
Still for that read-out and setting: to `O=C(Nc1ncc(C#Cc2cccs2)cc1F)c1c(Cl)cnn1CCC1CCN(C(=O)C2COCCO2)CC1` (stereo not shown) [Compound 206, 1-(2-(1-(1,4-dioxane-2-carbonyl)piperidin-4-yl)ethyl)-4-chloro-N-(3-fluoro-5-(thiophen-2-ylethynyl)pyridin-2-yl)-1H-pyrazole-5-carboxamide] belongs 310 nM; to `CC(=O)N1CC[C@@H](n2ncc(Cl)c2C(=O)Nc2ncc(C#Cc3ccccc3)cc2C)C[C@@H]1C` (single isomer, unassigned) [Compound 261, 1-[(2S,4R)-1-acetyl-2-methylpiperidin-4-yl]-4-chloro-N-[3-methyl-5-(phenylethynyl)pyridin-2-yl]-1H-pyrazole-5-carboxamide or 1-[(2R,4S)-1-acetyl-2-methylpiperidin-4-yl]-4-chloro-N-[3-methyl-5-(phenylethynyl)pyridin-2-yl]-1H-pyrazole-5-carboxamide], 430 nM.
With `CC(C)(C)OC(=O)N[C@H]1C[C@H](n2ncc(Cl)c2C(=O)Nc2ncc(C#Cc3ccccc3)cc2F)C1` [Compound 214, tert-butyl (trans-3-(4-chloro-5-((3-fluoro-5-(phenylethynyl)pyridin-2-yl)carbamoyl)-1H-pyrazol-1-yl)cyclobutyl)carbamate], the half-maximal inhibitory concentration (IC50) was determined as 330 nM.

The assay is the same for the next values; noted with them: TREK-1 Thallium (Tl+) flux assay; values without footnote *12 are Method 1.
In turn, `CC(=O)N1CC[C@H](Cn2ncc(Cl)c2C(=O)Nc2ncc(C#Cc3ccccc3)cc2C)[C@H](F)C1` [Compound 82, 1-(((3S,4R)-1-acetyl-3-fluoropiperidin-4-yl)methyl)-4-chloro-N-(3-methyl-5-(phenylethynyl)pyridin-2-yl)-1H-pyrazole-5-carboxamide] showed a half-maximal inhibitory concentration (IC50) of 160 nM.
Still for that read-out and setting: to `N#CC1(Cn2ncc(Cl)c2C(=O)Nc2c(F)cc(C#Cc3ccccc3)cc2F)CC1` [Compound 168, 4-chloro-1-((1-cyanocyclopropyl)methyl)-N-(2,6-difluoro-4-(phenylethynyl)phenyl)-1H-pyrazole-5-carboxamide] belongs 270 nM.
Regarding `Cc1cc(C#Cc2ccccc2)cnc1NC(=O)c1c(Cl)cnn1CC1CCN(C(=O)C2CC2)CC1` [Compound 52, 4-chloro-1-((1-(cyclopropanecarbonyl)piperidin-4-yl)methyl)-N-(3-methyl-5-(phenylethynyl)pyridin-2-yl)-1H-pyrazole-5-carboxamide], the IC50 was found to be 140 nM.
`CC(C)(C)OC(=O)N1CCC(Cn2ncc(Cl)c2C(=O)Nc2ncc(C#Cc3ccccc3)cc2F)CC1` [Compound 142, tert-butyl 4-((4-chloro-5-((3-fluoro-5-(phenylethynyl)pyridin-2-yl)carbamoyl)-1H-pyrazol-1-yl)methyl)piperidine-1-carboxylate] came in with an IC50 of 230 nM.
`Cc1cc(C#Cc2ccc(F)cc2)cnc1NC(=O)c1c(Cl)cnn1C1CC2(C1)CN(C(=O)C1CC1)C2` [Compound 115, 4-chloro-1-(2-(cyclopropanecarbonyl)-2-azaspiro[3.3]heptan-6-yl)-N-(5-((4-fluorophenyl)ethynyl)-3-methylpyridin-2-yl)-1H-pyrazole-5-carboxamide]: the half-maximal inhibitory concentration (IC50) worked out at 200 nM.
The same measure, in the same setting: to `CC(=O)N1CC[C@@H](Cn2ncc(Cl)c2C(=O)Nc2ncc(C#Cc3ccccc3)cc2C)[C@@H](F)C1` [Compound 109, 1-(((3R,4S)-1-acetyl-3-fluoropiperidin-4-yl)methyl)-4-chloro-N-(3-methyl-5-(phenylethynyl)pyridin-2-yl)-1H-pyrazole-5-carboxamide] belongs 190 nM; to `O=C(Nc1ncc(C#Cc2ccccc2)cc1F)c1c(Cl)cnn1-c1ccc2c(c1)OCCO2` [Compound 189, 4-chloro-1-(2,3-dihydrobenzo[b][1,4]dioxin-6-yl)-N-(3-fluoro-5-(phenylethynyl)pyridin-2-yl)-1H-pyrazole-5-carboxamide], 290 nM.
The same measure, in the same setting: the same measure for `Cc1cc(C#Cc2ccc(F)cc2)cnc1NC(=O)c1c(Cl)cnn1CC1(C#N)CCN(C(=O)C(C)C)CC1` [Compound 119, 4-chloro-1-((4-cyano-1-isobutyrylpiperidin-4-yl)methyl)-N-(5-((4-fluorophenyl)ethynyl)-3-methylpyridin-2-yl)-1H-pyrazole-5-carboxamide]: 200 nM.
Still for that read-out and setting: the same measure for `Cc1cc(C#Cc2ccccc2)cnc1NC(=O)c1c(Cl)cnn1C(C)C1CCN(C(=O)OC(C)(C)C)CC1` (stereo not shown) [Compound 77, tert-butyl 4-(1-(4-chloro-5-((3-methyl-5-(phenylethynyl)pyridin-2-yl)carbamoyl)-1H-pyrazol-1-yl)ethyl)piperidine-1-carboxylate]: 160 nM.
Turning to `Cc1cc(C#Cc2ccccc2)cnc1NC(=O)c1c(Cl)cnn1C1CN(C(=O)C2COCCO2)C1` (stereo not shown) [Compound 81, 1-(1-(1,4-dioxane-2-carbonyl)azetidin-3-yl)-4-chloro-N-(3-methyl-5-(phenylethynyl)pyridin-2-yl)-1H-pyrazole-5-carboxamide], the IC50 was determined as 160 nM.

The same assay, now with this note: read-out: Tl^+ Assay % inhibition at 30 uM (Minus value indicates activation of TREK-1); at 30 uM; CHO-K1 cells stably expressing human TREK-1; minus = activation.
Turning to `O=C(Nc1ncc(C#Cc2cccs2)cc1F)c1nn(CCC2CCN(C(=O)C3CC3)CC2)cc1Cl` [Compound 452, 4-chloro-1-(2-(1-(cyclopropanecarbonyl)piperidin-4-yl)ethyl)-N-(3-fluoro-5-(thiophen-2-ylethynyl)pyridin-2-yl)-1H-pyrazole-3-carboxamide], the inhibition (as a rule, the drop in the measured response relative to a control, in per cent) at 30 µM is -62%.
